# Experiments:
# [1] = test system: T1, A25T-TTR; experiment: A25T-TTR sedimentation assay (total protein precipitation); type: biochemical, human; conditions: four molar equivalents (15 μM); pH 5.0, 37 °C, 22 h
# T1 construct: TTR is composed of four identical 127 amino-acid residue β-sheet-rich subunits; made in house; host or cells: Escherichia coli BL21(DE3), pET expression system
# Method: TTR aggregation can also be measured by sedimentation using centrifugation. […] TTR aggregation induction was performed as described above. […] The supernatant was carefully removed, and 400 μl of Guanidine (8 M) was added to each sample and subsequently incubated for 1 h to unfold the aggregated TTR. The amount of resolubilized TTR was measured by absorbance at 280 nm. The percentage of TTR precipitated was calculated with respect to total (soluble) TTR at time 0. […]
# aggregation as measured by total protein precipitation. […]
# aggregation conditions (pH 4.4 and 37°C) for 72 hours. The samples were then centrifuged at 20,000 x g for 1 h at 4 °C and the supernatants (soluble protein) were carefully removed. The precipitated TTR from each sample was resolubilized by addition of 8 M guanidine solution followed by 1 h incubation at RT. TTR concentration was measured by spectroscopy at 280 nm and total amount of resolubilized TTR was calculated. The data is presented as % insoluble […]
# was performed for A25T-TTR at pH 5.0 and 37°C for 22 hours . […]
# [2] = test system: T2, TTR in human plasma (WT-TTR and V30M-TTR); experiment: [125I]T4 competition in human plasma, native gel electrophoresis; type: binding; conditions: 1 mM; plasma from normal (WT-TTR) and V30M-TTR FAP patient; 1 h RT
# T2 construct: human plasma from a normal (WT-TTR) and from an FAP patient carrying the V30M-TTR mutation; from tissue; host or cells: human plasma of normal donors and of V30M-TTR carriers
# From the text: Error bars indicate s.e.m. (n=3). […] Error bars indicate s.e.m. (n=3).
# [3] = test system: WT and V30M-TTR tetramers in plasma; experiment: TTR tetramer stability in human plasma by IEF under semi-denaturing conditions; type: biochemical; conditions: 1.4 mM, overnight 4 °C, 4 M urea
# [4] = test system: AC16 cells; experiment: TTR-induced cytotoxicity in AC16 cells, resazurin reduction assay; type: cell-based, human; conditions: 16 μM compound, 8 μM TTR; 24 h
# From the text: Error bars indicate s.e.m. […] Error bars indicate s.e.m. (n=4). […] Error bars indicate s.e.m. (n=3).
# [5] = test system: T3, L55P-TTR; experiment: Dot-blot filter assay of L55P-TTR aggregation secreted by RN22 cells; type: cell-based, human; conditions: 1 μM in the medium
# T3 construct: TTR is composed of four identical 127 amino-acid residue β-sheet-rich subunits; expressed in transfected cells; host or cells: rat Schwannoma RN22 cells, metallothionein promoter, ZnSO4 induction
# Method: The extent of extracellular L55P-TTR aggregation was monitored by a filter trap assay followed by TTR immunodetection.
# The rat Schwannoma cell line RN22 stably co-transfected with TTR L55P cDNA under the control of the metallothionein promoter was used to test the inhibitors of TTR aggregation as in ref. [51]. […] TTR in the medium was quantified by ELISA, and the volume of medium corresponding to 500 ng of TTR was applied on to a 0.2-μm pore cellulose acetate membrane filter (Schleicher and Schuell) using a manifold system (Gibco BRL) to separate soluble proteins from aggregates. […] Detection was performed with ECL (GE Healthcare). Dot blot quantification was performed using the ImageQuant program. The percentage of aggregation inhibition was calculated as 100 × ((Control—Treated)/Control). Experiments were repeated three times in triplicate.
# [6] = Tolcapone quantification in human plasma after oral administration (UPLC-MS/MS); type: in vivo; conditions: 200 mg
# Method: TTR stabilization in vivo was measured using an immunoturbidimetric assay as in Fig. 4c. The fraction of initial tetramer concentration (FOI) was determined in triplicate for each sample (FOI=TTR tetramer after 48 h urea treatment/TTR tetramer at time 0 in the presence of urea).
# Blood was collected 30 min before administration and 2 h after the dose in BD Vacutainer tubes with Lithium-Heparin and gel for plasma separation, following the manufacturer's instructions. Briefly, after gently mixing the tubes by inversion, blood was centrifuged at 1,300g for 10 min at 20 °C. Supernatants were collected and immediately stored at −80 °C until analysis.
# Extracted samples were analysed on a Waters Acquity UPLC coupled with a Waters Xevo TQ MS triple quadrupole mass spectrometer. Chromatographic separation was achieved on an Acquity HSS C18 column using a gradient elution with the mobile phase of methanol and 0.1% formic acid in water.
# [7] = no reference given; cited from earlier work
# [8] = cited from earlier work
# [9] = target: WT-TTR (Homo sapiens, UniProt P02766); experiment: Isothermal titration calorimetry, WT-TTR
# [10] = target: V122I-TTR (Homo sapiens, UniProt P02766, V142I); experiment: Isothermal titration calorimetry, V122I-TTR
# [11] = test system: A25T-TTR; experiment: A25T-TTR aggregation inhibition, turbidity, pH 5.0; conditions: four molar equivalents (15 μM); A25T-TTR 3.6 μM; pH 5.0, 37 °C, 22 h
# [12] = test system: Rat Schwannoma cells (RN22); experiment: Caspase-3 activation by Y78F-TTR oligomers in RN22 cells; conditions: Y78F-TTR aggregates 2 μM formed with 20 μM compound; 24 h exposure
# [13] = target: Y78F-TTR (Homo sapiens, UniProt P02766, Y98F); experiment: Y78F-TTR aggregation inhibition, turbidity at 340 nm, pH 4.2
# [14] = general model, two ligand-binding sites
# [15] = two identical and independent binding sites
smiles,measurement,setting,value
Cc1ccc(C(=O)c2cc(O)c(O)c([N+](=O)[O-])c2)cc1 [tolcapone],"reduction of A25T-TTR aggregation (sedimentation, Supplementary Fig. 1b)",[1],50%
same,radioactive T4-TTR band in the presence of compound,[2],no longer visible
same,TTR tetramer stabilization in plasma,[3],stabilized WT and V30M-TTR tetramers in plasma
same,effect on WT-TTR and V122I-TTR induced reduction in cell viability,[4],rescued this toxic effect
same,reduction of L55P-TTR aggregation compared with untreated cells,[5],~90%
same,concentration at 2 h,[6],13.6 µM
same,half-life in plasma,[7],2 to 3 h
same,blood–brain barrier crossing,[8],able to cross the blood–brain barrier
same,TΔs1 binding entropy,[9]; first ligand,1.8 kcal/mol
same,Δh1 site-specific binding enthalpy,[9]; first ligand,-8.7 kcal/mol
same,ΔH1 overall binding enthalpy,[9]; [14],-8.7 kcal/mol
same,ΔH2 overall binding enthalpy,[9]; [14],-18.4 kcal/mol
same,β2 overall association constant,[9]; [14],7.9 × 10^14 M^−2
same,TΔs2 binding entropy,[9]; second ligand,0.2 kcal/mol
same,Δh2 site-specific binding enthalpy,[9]; second ligand,-9.7 kcal/mol
same,TΔs binding entropy,[10]; called unfavourable,1.6 kcal/mol
same,Δh binding enthalpy per site,[10]; [15],-11.5 kcal/mol
same,β1 association constant,[10]; [15],1.8e+07 M⁻¹
same,"reduction of A25T-TTR aggregation (turbidity, Fig. 1d)",[11],40%
same,reduction in Caspase-3 activation,[12],27.8%±6.1
same,RA (%): percent reduction of TTR aggregation rate at high inhibitor concentration,[13],89.13%
